# Laboratory results published in patent US20180282331A1, “7-Oxo -6-(sulfooxy)- 1,6-diazabicyclo [3.2.1] octane containing compounds and their use in treatment of bacterial infections (changed by PCT to: 7-OXO -6-(SULFOOXY)- 1,6-DIAZABICYCLO [3.2.1] OCTANE CONTAINING COMPOUNDS AND THEIR USE IN TREATMENT OF BACTERIAL INFECTIONS” (WOCKHARDT LIMITED, priority 2015, published 2018).
# Assays:
# Assay type in all cases: cell-based
# [1] = system: K. pneumoniae ATCC 700603; assay: MIC of Ceftazidime in combination with compound (4 mcg/ml), agar dilution; settings: Klebsiella pneumoniae, ATCC700603, Ceftazidime alone or with constant 4 mcg/ml of compound
# Method: (§1) The biological activity of representative compounds according to the invention against various bacterial strains was investigated. The Minimum Inhibitory Concentration (MIC) determination for the combinations was carried out in Muller Hinton Agar (MHA) (BD, USA) according to Clinical and Laboratory Standards Institute (CLSI) recommendations, (Clinical and Laboratory Standards Institute (CLSI), Performance Standards for Antimicrobial Susceptibility Testing, 20th Informational Supplement, M 100-S20, Volume 30, No. 1, 2010). In short, the test strains were adjusted to deliver about 10^4 CFU per spot with a multipoint inoculator (Applied Quality Services, UK). The plates were poured with MHA containing doubling concentration range of representative compounds according to present invention. The plates were inoculated and were incubated at 35° C. for 18 hours. […] The Table 5 depicts the antibacterial activity profile of compounds according to present invention against various multidrug resistant bacterial strains.
# (§2) The combinations of compounds according to present invention were also tested for their antibacterial activity in combination with Ceftazidime. The plates were poured with MHA containing doubling concentration range of Ceftazidime in combination with constant concentration (4 mcg/ml) of representative compounds of Formula (I).
# E. coli NCTC 13353 [2] = assay: as above; settings: Escherichia coli, NCTC13353, Ceftazidime alone or with constant 4 mcg/ml of compound
# Method: as §1, §2
# E. coli NCTC 13352 [3] = assay: as above; settings: Escherichia coli, NCTC13352, Ceftazidime alone or with constant 4 mcg/ml of compound
# Method: as §1, §2
# E. coli M 50 [4] = assay: as above; settings: Escherichia coli, M50, Ceftazidime alone or with constant 4 mcg/ml of compound
# Method: as §1, §2
# E. coli 7 MP [5] = assay: as above; settings: Escherichia coli, Ceftazidime alone or with constant 4 mcg/ml of compound
# Method: as §1, §2
# K. pneumoniae H521 [6] = assay: as above; settings: Klebsiella pneumoniae, Ceftazidime alone or with constant 4 mcg/ml of compound
# Method: as §1, §2
# K. pneumoniae H525 [7] = assay: as above; settings: Klebsiella pneumoniae, Ceftazidime alone or with constant 4 mcg/ml of compound
# Method: as §1, §2
# [8] = system: K. pneumoniae ATCC 700603; assay: MIC, agar dilution (MHA), compound alone; settings: Klebsiella pneumoniae, ATCC700603; K. pneumoniae ATCC 700603; compound alone; MHA, 35° C., 18 hours; read-out: MIC
# Method: as §1
# E. coli NCTC 13353 [9] = assay: MIC, agar dilution (MHA), compound alone; settings: Escherichia coli, NCTC13353; E. coli NCTC 13353; compound alone; MHA, 35° C., 18 hours; read-out: MIC
# Method: as §1
# E. coli NCTC 13352 [10] = assay: MIC, agar dilution (MHA), compound alone; settings: Escherichia coli, NCTC13352; E. coli NCTC 13352; compound alone; MHA, 35° C., 18 hours; read-out: MIC
# Method: as §1
# E. coli M 50 [11] = assay: MIC, agar dilution (MHA), compound alone; settings: Escherichia coli, M50; E. coli M 50; compound alone; MHA, 35° C., 18 hours; read-out: MIC
# Method: as §1
# E. coli 7 MP [12] = assay: MIC, agar dilution (MHA), compound alone; settings: Escherichia coli; E. coli 7 MP; compound alone; MHA, 35° C., 18 hours; read-out: MIC
# Method: as §1
# K. pneumoniae H521 [13] = assay: MIC, agar dilution (MHA), compound alone; settings: Klebsiella pneumoniae; K. pneumoniae H521; compound alone; MHA, 35° C., 18 hours; read-out: MIC
# Method: as §1
# K. pneumoniae H525 [14] = assay: MIC, agar dilution (MHA), compound alone; settings: Klebsiella pneumoniae; K. pneumoniae H525; compound alone; MHA, 35° C., 18 hours; read-out: MIC
# Method: as §1
SMILES,MIC [1],MIC (E. coli NCTC 13353 [2]),MIC (E. coli NCTC 13352 [3]),MIC (E. coli M 50 [4]),MIC (E. coli 7 MP [5]),MIC (K. pneumoniae H521 [6]),MIC (K. pneumoniae H525 [7]),MIC [8],MIC (E. coli NCTC 13353 [9]),MIC (E. coli NCTC 13352 [10]),MIC (E. coli M 50 [11]),MIC (E. coli 7 MP [12]),MIC (K. pneumoniae H521 [13]),MIC (K. pneumoniae H525 [14])
O=C(NOCCn1ncnn1)[C@@H]1CC[C@@H]2CN1C(=O)N2OS(=O)(=O)[O-].[Na+] [Example 50],–,–,–,–,–,–,–,> 32 µg/mL,8 µg/mL,8 µg/mL,8 µg/mL,32 µg/mL,> 32 µg/mL,> 32 µg/mL
O=C(NOCCn1cnnn1)[C@@H]1CC[C@@H]2CN1C(=O)N2OS(=O)(=O)[O-].[Na+] [Example 51],–,–,–,–,–,–,–,> 32 µg/mL,4 µg/mL,8 µg/mL,4 µg/mL,16 µg/mL,> 32 µg/mL,> 32 µg/mL
O=C(NOCCn1nnnc1CCO)[C@@H]1CC[C@@H]2CN1C(=O)N2OS(=O)(=O)[O-].[Na+] [Example 56],–,–,–,–,–,–,–,> 32 µg/mL,4 µg/mL,8 µg/mL,4 µg/mL,> 32 µg/mL,8 µg/mL,16 µg/mL

# Second part, the molecule after the results:
MIC [1],MIC (E. coli NCTC 13353 [2]),MIC (E. coli NCTC 13352 [3]),MIC (E. coli M 50 [4]),MIC (E. coli 7 MP [5]),MIC (K. pneumoniae H521 [6]),MIC (K. pneumoniae H525 [7]),MIC [8],MIC (E. coli NCTC 13353 [9]),MIC (E. coli NCTC 13352 [10]),MIC (E. coli M 50 [11]),MIC (E. coli 7 MP [12]),MIC (K. pneumoniae H521 [13]),MIC (K. pneumoniae H525 [14]),SMILES
16 µg/mL,> 32 µg/mL,16 µg/mL,> 32 µg/mL,> 32 µg/mL,> 32 µg/mL,> 32 µg/mL,–,–,–,–,–,–,–,CC(C)(O/N=C(\C(=O)N[C@@H]1C(=O)N2C(C(=O)[O-])=C(C[n+]3ccccc3)CS[C@H]12)c1csc(N)n1)C(=O)O [Ceftazidime]
–,–,–,–,–,–,–,> 32 µg/mL,4 µg/mL,8 µg/mL,> 32 µg/mL,32 µg/mL,16 µg/mL,16 µg/mL,Cc1nnnn1CCONC(=O)[C@@H]1CC[C@@H]2CN1C(=O)N2OS(=O)(=O)[O-].[Na+] [Example 53]
–,–,–,–,–,–,–,> 32 µg/mL,16 µg/mL,32 µg/mL,16 µg/mL,> 32 µg/mL,> 32 µg/mL,> 32 µg/mL,O=C(NOCCn1nnc(CCO)n1)[C@@H]1CC[C@@H]2CN1C(=O)N2OS(=O)(=O)[O-].[Na+] [Example 55]
